Values quoted from earlier work in article PMC4460250, “Systems Pharmacology Dissecting Holistic Medicine for Treatment of Complex Diseases: An Example Using Cardiocerebrovascular Diseases Treated by TCM” (Evidence-based Complementary and Alternative Medicine : eCAM, 2015).

details: human; PreHIA data set, value given as fraction; cited from earlier work

In the case of `Nc1ccc(S(=O)(=O)c2ccc(N)cc2)cc1` [Dapsone], the “HIA(Human Intestinal Absorption)” value is given as 0.9.

same assay, conditions: in vivo; cited from earlier work

Point of comparison: `CO/N=C(\C(=O)N[C@@H]1C(=O)N2C(C(=O)O)=C(COC(C)=O)CS[C@H]12)c1csc(N)n1` [Cefotaxime], “HIA(Human Intestinal Absorption)” value 0.05. Against it:
- OC[C@H]1O[C@@H](O[C@@H]2[C@@H](CO)OC(O)(CO)[C@H]2O)[C@H](O)[C@@H](O)[C@H]1O (mixture of isomers) [Lactulose] — lower, 0.01
- C#C[C@]1(OC(C)=O)CC[C@H]2[C@@H]3CCC4=CC(=NO)CC[C@@H]4[C@H]3CC[C@@]21CC (mixture of isomers) [Norgestimate] — higher, 1
- CC(=O)Nc1ccc(O)cc1 [Acetaminophen] — higher, 0.85
- CC(=O)Nc1ccccc1 [Acetanilide] — higher, 1
- CC(=O)c1ccc(S(=O)(=O)NC(=O)NC2CCCCC2)cc1 [Acetohexamide] — higher, 0.8
- Cc1cnc(C(=O)O)c[n+]1[O-] [Acipimox] — higher, 0.95
- COc1cc(C)c(/C=C/C(C)=C/C=C/C(C)=C/C(=O)O)c(C)c1C [Acitretin] — higher, 0.95
- Oc1ncnc2[nH]ncc12 [Allopurinol] — higher, 0.8
- C=CCNc1nc(NCC=C)nc(N2CCN(C(c3ccc(F)cc3)c3ccc(F)cc3)CC2)n1 [Almitrine] — higher, 0.9
- CN(C)CCc1c[nH]c2ccc(CS(=O)(=O)N3CCCC3)cc12 [Almotriptan] — higher, 0.75
- NCC[C@H](O)C(=O)N[C@@H]1C[C@H](N)[C@@H](O[C@H]2O[C@H](CN)[C@@H](O)[C@H](O)[C@H]2O)[C@H](O)[C@H]1O[C@H]1O[C@H](CO)[C@@H](O)[C@H](N)[C@H]1O [Amikacin] — lower, 0.01
- CN(C)CCC=C1c2ccccc2CCc2ccccc21 [Amitriptyline] — higher, 0.95
- Nc1cc(-c2ccncc2)c[nH]c1=O [Amrinone] — higher, 0.93
- O=C1CN2Cc3c(ccc(Cl)c3Cl)N=C2N1 [Anagrelide] — higher, 0.7
- NCC[C@H](O)C(=O)N[C@@H]1C[C@H](N)[C@@H](O[C@H]2O[C@H](CN)CC[C@H]2N)[C@H](O)[C@H]1O[C@H]1O[C@H](CO)[C@@H](O)[C@H](N)[C@H]1O [Arbekacin] — lower, 0.01
- CC(=O)Oc1ccccc1C(=O)O [Aspirin] — higher, 0.82
- COc1ccc(CCN2CCC(Nc3nc4ccccc4n3Cc3ccc(F)cc3)CC2)cc1 [Astemizole] — higher, 1
- CN1CCC(=C2c3ccccc3CCc3cccnc32)CC1 [Azatadine] — higher, 0.9
- CN1CCCC(n2nc(Cc3ccc(Cl)cc3)c3ccccc3c2=O)CC1 (centres unmarked) [Azelastine] — higher, 1
- CN1CCN(CCCCN2C(=O)CN(/N=C/c3ccc(-c4ccc(Cl)cc4)o3)C2=O)CC1 [Azimilide] — higher, 1
- NS(=O)(=O)c1cc2c(cc1C(F)(F)F)NC(Cc1ccccc1)NS2(=O)=O (centres unmarked) [Bendroflumethiazide] — higher, 1
- CCc1oc2ccccc2c1C(=O)c1cc(Br)c(O)c(Br)c1 [Benzbromarone] — higher, 0.73
- CN(C)CCCOc1nn(Cc2ccccc2)c2ccccc12 [Benzydamine] — higher, 0.87
- C[N+](C)(CCOc1ccccc1)Cc1ccccc1 [Bephenium] — the same, 0.05
- CC(C)COCC(CN(Cc1ccccc1)c1ccccc1)N1CCCC1 (centres unmarked) [Bepridil] — higher, 1
- CNCCc1ccccn1 [Betahistine] — higher, 1
- CC(C)NCC(O)COc1ccc(CCOCC2CC2)cc1 (centres unmarked) [Betaxolol] — higher, 0.9
- CC(C[N+](C)(C)C)OC(N)=O (centres unmarked) [Bethanechol] — the same, 0.05
- CC(C)(Oc1ccc(CCNC(=O)c2ccc(Cl)cc2)cc1)C(=O)O [Bezafibrate] — higher, 1
- CC(O)(CS(=O)(=O)c1ccc(F)cc1)C(=O)Nc1ccc(C#N)c(C(F)(F)F)c1 (centres unmarked) [Bicalutamide] — higher, 0.9
- CCCC1O[C@@H]2C[C@H]3[C@@H]4CCC5=CC(=O)C=C[C@]5(C)[C@H]4[C@@H](O)C[C@]3(C)[C@]2(C(=O)CO)O1 (some centres unmarked) [Budesonide] — higher, 1
- CCCCCOC(=O)Nc1nc(=O)n([C@@H]2O[C@H](C)[C@@H](O)[C@H]2O)cc1F [Capecitabine] — higher, 0.96
- NC(=O)N1c2ccccc2C=Cc2ccccc21 [Carbamazepine] — higher, 1
- CCOC(=O)n1ccn(C)c1=S [Carbimazole] — higher, 0.95
- O=NN(CCCl)C(=O)NCCCl [Carmustine] — higher, 1
- CC1=C(C(=O)O)N2C(=O)[C@@H](NC(=O)[C@H](N)c3ccc(O)cc3)[C@H]2SC1 [Cefadroxil] — higher, 1
- N[C@@H](C(=O)N[C@@H]1C(=O)N2C(C(=O)O)=C(CSc3c[nH]nn3)CS[C@H]12)c1ccc(O)cc1 [Cefatrizine] — higher, 0.76
- CO[C@@]1(NC(=O)CSCC#N)C(=O)N2C(C(=O)O)=C(CSc3nnnn3C)CS[C@@H]21 [Cefmetazole] — higher, 0.1
- COCC1=C(C(=O)OC(C)OC(=O)OC(C)C)N2C(=O)[C@@H](NC(=O)/C(=N\OC)c3csc(N)n3)[C@H]2SC1 (some centres unmarked) [Cefpodoxime_proxetil] — higher, 0.5
- CO/N=C(\C(=O)N[C@@H]1C(=O)N2C(C(=O)O)=CCS[C@H]12)c1csc(N)n1 [Ceftizoxime] — higher, 0.72
- CO/N=C(\C(=O)N[C@@H]1C(=O)N2C(C(=O)O)=C(CSc3nc(=O)c(=O)[nH]n3C)CS[C@H]12)c1csc(N)n1 [Ceftriaxone] — higher, 1
- CO/N=C(\C(=O)N[C@@H]1C(=O)N2C(C(=O)O)=C(COC(N)=O)CS[C@H]12)c1ccco1 [Cefuroxime] — higher, 1
- CC1=C(C(=O)O)N2C(=O)[C@@H](NC(=O)[C@H](N)C3=CCC=CC3)[C@H]2SC1 [Cephradine] — higher, 0.95
- [H]/N=C(\N/C(=N/[H])Nc1ccc(Cl)cc1)NC(C)C [Chlorguanide] — higher, 0.85
- [H]/N=C(\N/C(=N/[H])NCCCCCCNC(=N)NC(=N)Nc1ccc(Cl)cc1)Nc1ccc(Cl)cc1 [Chlorhexidine] — the same, 0.05
- CN(C)CCC(c1ccc(Cl)cc1)c1ccccn1 (centres unmarked) [Chlorpheniramine] — higher, 0.8
- CN(C)CCCN1c2ccccc2Sc2ccc(Cl)cc21 [Chlorpromazine] — higher, 0.98
- CCC#CC[C@H](C)[C@H](O)C#C[C@@H]1[C@H]2C/C(=C/COCC(=O)O)C[C@H]2C[C@H]1O [Cicaprost] — higher, 1
- CCOC(=O)[C@H](CCc1ccccc1)N[C@H]1CCCN2CCC[C@@H](C(=O)O)N2C1=O [Cilazapril] — higher, 0.59
- COc1ccc([C@]2(C#N)CC[C@@H](C(=O)O)CC2)cc1OC1CCCC1 [Cilomilast] — higher, 1
- CN/C(=N/CCSCc1nc[nH]c1C)NC#N [Cimetidine] — higher, 0.64
- COc1cc(N)c(Cl)cc1C(=O)NC1CCN(CCCOc2ccc(F)cc2)CC1OC (centres unmarked) [Cisapride] — higher, 1
- O=P(O)(O)C(Cl)(Cl)P(=O)(O)O [Clodronate] — lower, 0.03
- CCOC(=O)C(C)(C)Oc1ccc(Cl)cc1 [Clofibrate] — higher, 0.97
- Clc1cccc(Cl)c1N=C1NCCN1 [Clonidine] — higher, 0.95
- OCCN1CCN(CCC=C2c3ccccc3Sc3ccc(Cl)cc32)CC1 [Clopenthixol] — higher, 0.95
- C[C@]12C[C@H](O)[C@H]3[C@@H](CCC4=CC(=O)CC[C@@]43C)[C@@H]1CC[C@@H]2C(=O)CO [Corticosterone] — higher, 1
- N[C@@H]1CON=C1O [Cycloserine] — higher, 0.73
- CO[C@H]1C[C@H](O[C@H]2CC[C@]3(C=O)[C@H]4CC[C@]5(C)[C@@H](C6=CC(=O)OC6)CC[C@]5(O)[C@@H]4CC[C@]3(O)C2)O[C@H](C)[C@H]1O [Cymarin] — higher, 0.47
- CC(=O)O[C@]1(C(C)=O)CC[C@H]2[C@@H]3C=C(Cl)C4=CC(=O)[C@@H]5C[C@@H]5[C@]4(C)[C@H]3CC[C@@]21C [Cyproterone_acetate] — higher, 0.98
- O=C1CN(/N=C/c2ccc(-c3ccc([N+](=O)[O-])cc3)o2)C(O)=N1 [Dantrolene] — higher, 0.8
- CNCCCN1c2ccccc2CCc2ccccc21 [Desipramine] — higher, 1
- CC(=O)Nc1c(I)c(NC(C)=O)c(I)c(C(=O)O)c1I [Diatrizoate] — the same, 0.05
- CC1=NS(=O)(=O)c2cc(Cl)ccc2N1 [Diazoxide] — higher, 0.9
- CC/C(=C(/CC)c1ccc(O)cc1)c1ccc(O)cc1 [Diethylstilbestrol] — higher, 0.9
- O=C(O)c1cc(-c2ccc(F)cc2F)ccc1O [Diflunisal] — higher, 0.9
- OCCN(CCO)c1nc(N2CCCCC2)c2nc(N(CCO)CCO)nc(N3CCCCC3)c2n1 [Dipyridamole] — higher, 0.58
- CC(C)N(CCC(C(N)=O)(c1ccccc1)c1ccccn1)C(C)C (centres unmarked) [Disopyramide] — higher, 0.95
- CN(C)CC/C=C1\c2ccccc2CSc2ccccc21 [Dothiepin] — higher, 0.95
